The structures appear in SMILES notation. Read-outs that look alike come from different tables or passages of the source.

The results in this text go back to patent US12570661B2, “Isoform-specific aldehyde dehydrogenase inhibitors” (The Board of Trustees of the Leland Stanford Junior …, priority 2020, dated 2026).

One data set relates to SW480 cells (adherent). In words: Cell viability assay, adherent SW480 cultures. The following applies: adherent culture, 7 days. The class given is cell-based, human. How it is done: (§1) SW480 or HCT116 cells were seeded into regular or Matrigel-coated 96-well plates at a density of 1000 cells/well. The cells were cultured in the corresponding adherent or spheroid culture medium (200 μL/well) containing the designated compounds or an equivalent amount of DMSO vehicle. Each culture was maintained for 7 days, and then cell viabilities were measured using a CellTiter-Glo 3D Cell Viability Assay kit (Promega). Briefly, 100 μL of the culture medium was removed from each well and replaced with 100 μL 3D Cell Assay reagent. The cells in each well were next homogenized by vigorous pipetting, and the plate was incubated for 10 min at room temperature to stabilize the chemiluminescent signal. A 150-μL aliquot from each well was then transferred into a white opaque 96-well assay plate (flat-bottom and non-treated; Corning Costar) and luminescence intensities were measured with a Veritas microplate luminometer (Turner BioSystems).

The subject of a further data set is NIH-3T3 cells. In words: Seahorse oxygen-consumption-rate assay (NIH3T3). The class given is cell-based, murine. As to conditions: Mus musculus.
Data set [1] can be described thus: HEK-293T cytotoxicity (cell viability) assay. The class given is cell-based. As to conditions: human, HEK-293T cells; adherent HEK-293T, 4-5 days, CellTiter-Glo; read-out: HEK293T GI50. How it is done:
HEK-293T cells were seeded into a 96-well plate at a density of 5×10^3 cells/well and treated with varying concentrations of selected compounds or an equivalent amount of DMSO vehicle. The cells were cultured for 4-5 days without a media change, and after the DMSO-treated cells approached 100% confluence, the cell viabilities were measured using a CellTiter-Glo 3D Cell Viability Assay kit (Promega) and a Veritas microplate luminometer (Turner BioSystems) as described above.
Background: Cellular ATP, detected with luciferase, serves as a proxy for viable cell number.

The subject of the next data set is SW480 cells (spheroid). In words: Matrigel spheroid growth / viability assay, SW480. The class given is cell-based. The following applies: for GI50: Homo sapiens, SW480, 168 h; for effect on SW480 spheroid formation: 2-μM dose. How it is done: To prepare Matrigel-coated culture plates, 96-well and 24-well plates were placed on ice and coated with 25 μL or 300 μL, respectively, of Matrigel matrix (Corning, LDEV-free) that had been thawed overnight at 4° C. The plates were then placed in a 37° C. incubator for 30 min to allow the Matrigel to solidify. SW480 or HCT116 cells were suspended in spheroid culture medium (RPMI-1640 containing 20 ng/mL recombinant human epidermal growth factor (Abcam, ab9697), 20 ng/mL recombinant human fibroblast growth factor (BioVision, 4037), 5 μg/mL heparin (Sigma), 1× N-2 supplement (Thermo Fisher Scientific), 100 U/mL penicillin, and 100 μg/mL streptomycin) and then seeded into the 96-well and 24-well Matrigel-coated plates at densities of 1,000 or 5,000 cells/well and total well volumes of […] or 1 mL, respectively. Compounds were diluted in spheroid culture medium and added to the wells, and the spheroid were grown at 37° C. with 5% CO2 for 7 days.
To quantify spheroid growth at the 7-day endpoint, unstained spheroids were imaged with phase-contrast illumination using a Keyence BZ-X710 microscope. Some cultures were also stained with crystal violet to enable brightfield imaging. Briefly, the Matrigel spheroids cultures were treated with PBS containing 0.5% crystal violet and 5% methanol for 15 min at 37° C. and then gently washed 4×5 min with PBS. Spheroid sizes were quantified with ImageJ (Fiji) software using masks created with the default “Threshold” function and foreground/background adjustments to optimize masking fidelity. The full field of view was then selected for “Analyze Particles” analysis, providing numbered list of each spheroid and its area in the micrograph. In the few cases that two adjacent spheroids were treated as one object by the image processing software, their measurements were manually corrected using the “Freehand Selections” tool. To exclude background and debris from dead cells, spheroids with areas less than 500 μm^2 were excluded from the image analyses.
as §1

The target in another data set is T1, ALDH1B1 (Homo sapiens, UniProt P30837).
T1 sequence (P30837 18-517): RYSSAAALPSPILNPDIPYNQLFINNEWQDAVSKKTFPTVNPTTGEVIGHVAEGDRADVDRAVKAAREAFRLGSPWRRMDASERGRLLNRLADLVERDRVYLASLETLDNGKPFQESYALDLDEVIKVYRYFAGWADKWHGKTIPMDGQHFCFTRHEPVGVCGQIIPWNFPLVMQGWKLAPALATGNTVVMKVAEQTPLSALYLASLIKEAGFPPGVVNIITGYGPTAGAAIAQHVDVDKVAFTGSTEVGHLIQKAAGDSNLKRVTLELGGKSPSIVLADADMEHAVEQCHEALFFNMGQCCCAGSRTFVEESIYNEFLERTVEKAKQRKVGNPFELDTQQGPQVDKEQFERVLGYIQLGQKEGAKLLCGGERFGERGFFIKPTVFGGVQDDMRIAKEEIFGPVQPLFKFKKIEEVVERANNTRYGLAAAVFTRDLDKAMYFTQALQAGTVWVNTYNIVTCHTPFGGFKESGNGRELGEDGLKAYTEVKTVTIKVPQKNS
As to the kind of experiment: ALDEFLUOR assay of cellular ALDH1B1 activity in ALDH1B1-transfected ALDH1A3−/− A375 cells. The following applies: for IC50: ALDEFLUOR, ALDH1B1-overexpressing ALDH1A3−/− A375 cells, read-out: ALDH1B1(in cellulo) IC50. The class given is cell-based. How it is done:
ALDH1A3^−/− A375 cells were seeded into a 6-well plate at a density of 5×10^5 cells/well and cultured for 24 h. The cells were then transfected with either pCMV6-entry, pCMV6-GFP (Addgene, plasmid 11153), or pCMV-ALDH1B1. After 24 h, the media was replaced and transfection efficiencies were estimated by the EGFP-positive cells in the pCMV-GFP-transfected well. The cells were cultured for another 24 h and their ALDH activities were quantified using the ALDEFLUOR assay. Briefly, the cells were isolated from the plate with trypsin and resuspended in ALDEFLUOR assay buffer (STEMCELL Technologies) at a concentration of 4×10^5 cells/mL. Each ALDEFLUOR assay used 0.5 mL of this cell suspension, and the cells were treated with individual compounds for 15 min at 37° C. and 5% CO2. The cell suspensions were then treated with 2.5 μL ALDEFLUOR reagent and incubated for an additional 30 min at 37° C. and 5% CO2. The cells were then collected by centrifugation (450×g) for 5 min at room temperature, resuspended in 200 μL assay buffer, and analyzed with an LSR II flow cytometer (BD Biosciences) at the Stanford FACS facility.

Setting [2] is: Matrigel spheroid culture, 7 days, read-out: Spheroid SW480 GI50.

For orientation: GI50 means the concentration that inhibits growth by half. One may read the IC50 as the concentration needed to halve the response being measured. As to `COc1ccccc1C1=CN(c2ccc(-c3ccccc3)cc2)C2=NCCCCN12` [HPI-273], the GI50 with SW480 cells (adherent) (Homo sapiens, SW480, 168 h) worked out at 5800 nM; in data set [1] it was 2800 nM; in the data set with SW480 cells (spheroid) (setting [2]), 1600 nM. The IC50 with NIH-3T3 cells was determined as 190 nM; at ALDH1B1 it was 35 nM.

Consider `COc1ccccc1-n1cc(-c2ccc(-c3ccccc3)cc2)[n+]2c1CCCCC2` [Imidazolium 2], for which the GI50 is 570 nM with SW480 cells (adherent) (Homo sapiens, SW480, 168 h); 230 nM in data set [1]; 820 nM with SW480 cells (spheroid) (setting [2]). For the same compound, the IC50 was 180 nM in the data set on NIH-3T3 cells and 38 nM at ALDH1B1. For the same compound, the “effect on SW480 spheroid formation” value in the data set with SW480 cells (spheroid) is “strongly suppressed SW480 spheroid formation”.

Turning to `COc1ccccc1-c1ccc(-c2cn(-c3ccccc3OC)c3[n+]2CCCCC3)cc1.[Br-]` [Imidazolium 8], the GI50 with SW480 cells (adherent) (Homo sapiens, SW480, 168 h) is 850 nM; in data set [1] it was 160 nM; in the data set on SW480 cells (spheroid) (setting [2]), 960 nM. The IC50 in the data set on NIH-3T3 cells is 130 nM; at ALDH1B1, 22 nM. In the data set on SW480 cells (spheroid), the “effect on SW480 spheroid formation” value is recorded as “strongly suppressed SW480 spheroid formation”.

Consider `COc1ccccc1C1=CN(c2ccc(-c3ccccc3)cc2)C2=NCCCN12` [STL5-T-0002], for which the GI50 in the data set with SW480 cells (adherent) is 8200 nM; in data set [1], 8900 nM; in the data set with SW480 cells (spheroid) (read-out: Spheroid SW480 GI50 (nM), Matrigel spheroid culture, 7 days) it was 750 nM. Moreover, the IC50 stood at 850 nM in the data set with NIH-3T3 cells and 110 nM on ALDH1B1.

Regarding `COc1ccccc1-n1cc(-c2ccccn2)[n+]2c1CCCCC2` [Compound 63], the “effect on SW480 spheroid formation” value in the data set with SW480 cells (spheroid) is “did not impede the growth”. Besides, at ALDH1B1 (flow cytometry), the “effect on ALDH1B1-dependent ALDEFLUOR signal (cellular ALDH1B1 activity)” value is “had no effect”.
